Source: patent US20130196934A1, “COMPOSITION FOR PERINATAL AND NEONATAL STROKE” (priority 2010, published 2013)

System: red blood cell (RBC)
Test: Cell-based antioxidant protection in erythrocytes (CAP-e) assay
Conditions: human RBC, AAPH; biphasic dose response; FIG. 2
Source text: As a model cell type, red blood cell (RBC) was used. This is an inert cell type, in contrast to other cell types such as PMN cells as described in section 2, where pro-inflammatory compounds may induce the reactive oxidative burst, or anti-inflammatory compounds may perform cellular signaling and change the behavior of the PMN cell, at doses many times below levels of detection for antioxidants. This assay was developed particularly to be able to assess antioxidants from complex natural products in a cell-based system. Human RBC were washed repeatedly physiological saline, and then exposed to the test products. During the incubation with the test products, any antioxidant compounds able to cross the cell membrane will enter the interior of the RBC. Then the RBC are washed to remove compounds that were not absorbed by the cells, loaded with the DCF-DA dye, which turns fluorescent upon exposure to reactive oxygen species. Oxidation was triggered by addition of the peroxyl free radical generator AAPH. The fluorescence intensity was evaluated. The low fluorescence intensity of untreated control cells served as a baseline, and RBC treated with AAPH alone served as a positive control for maximum oxidative damage.

O=C[C@H](O)[C@H](O)[C@H](O)CO [ribose, Ribose]
antioxidant protection of erythrocytes from oxidative damage: protected the erythrocytes
